Assay results reported in article PMC10447463, “Data-mining unveils structure–property–activity correlation of viral infectivity enhancing self-assembling peptides” (Nature Communications, 2023).
Like-named read-outs stand apart in the source and are kept apart here.

Tests used:
[1] = assay type: physicochemical; parameters: key to Fibril / Fibril Formation / TEM 2cat / Fibril: 1 = fibrils present; 0 non-fibrillar structures; details: for Fibril / Fibril Formation: 1 mg/mL, uranyl acetate stain, qualitative
[2] = Zeta-potential measurement; assay type: physicochemical
Method in brief: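 Readout: zeta potential (mV) derived by Smoluchowski from measured electrophoretic mobility. Preformed aggregates (1 mg/mL peptide, PBS pH 7.4, RT for 1 d) were diluted into dilute KCl electrolyte (1 mM) shortly before analysis.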

[3] = Turbidity, derived count rate of scattered light; assay type: physicochemical; details: for Count Rate / kcps: derived count rate of scattered light at 633 nm, 173°, from zeta-potential measurement, 0.1 mg/mL in 1 mM KCl after 1 d at 1 mg/mL in PBS, turbidity / microscopic aggregation, mean of triplicate
Method in brief: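 Samples: 1 mg/mL in PBS pH 7.4 (from DMSO), 1 d at RT, then diluted in 1 mM KCl immediately before measurement. Triplicates, two independent runs averaged.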

[4] = Turbidity, derived count rate of scattered light; assay type: physicochemical; details: for Count Rate: derived count rate of scattered light (turbidity); for Log10 Count Rate: turbidity, derived count rate of scattered light, data of Figure 2D
[5] = TEM, 1 = fibrils present, 0 = non-fibrillar
[6] = TEM, 1 = fibrils present, 0 = non-fibrillar structures
[7] = category: fibrils present or non-fibrillar
[8] = zeta-potential of peptide, source data of Figure 2C
[9] = zeta-potential of the peptide assemblies, mean, Figure 3A source data
[10] = Log10 of derived count rate of scattered light (turbidity)
[11] = turbidity, Log10 of derived count rate of scattered light, Figure 3A source data
[12] = Fig S10 panel D, fibril category by TEM
[13] = zeta potential of peptide assemblies
[14] = log10 of derived count rate of scattered light (turbidity)

| Sequence | TEM 2cat ([1]; Fig S10 panel D) | Fibril ([1]; Fig S10 panel E) | Fibril / Fibril Formation ([1]; TEM) | Fibril [1, 5] | Fibril [1, 6] | TEM 2cat [1, 7] | Zeta-Pot. [2] | Zeta-Potential / mV [2, 8] | Zeta-Potential / mV [2, 9] | Log10 Count Rate [3, 10] | Count Rate / kcps [3] | Log10 Count Rate [3, 11] | Log10 Count Rate ([3]; turbidity, log10 of derived count rate of scattered light) | Count Rate [4] | Log10 Count Rate [4] | TEM 2cat [1, 12] | Zeta-Pot. [2, 13] | Log10 Count Rate [3, 14] | Log10 Count Rate ([3]; logarithm of count rate in kcps) |
| --- | --- | --- | --- | --- | --- | --- | --- | --- | --- | --- | --- | --- | --- | --- | --- | --- | --- | --- | --- |
| QCKIKIQINM | 1 | 1 | 1 | 1 | 1 | 1 | 11.37 | 11.15 mV | 11.37 mV | 3.979 | 9524 kcps | 3.979 | 3.979 | 9524 | 3.979 |  |  |  |  |
| RGDCKFKFQF |  | 1 | 1 | 1 | 1 | 1 |  | 16.37 mV | 13.87 mV | 3.1264 | 1338 kcps | 3.1264 |  | 1338 | 3.1264 | 1 | 13.87 | 3.1264 |  |
| RGDCKIKIQINM |  |  | 1 | 1 | 1 | 1 |  | 12.35 mV | 11.3 mV | 3.2102 | 1623 kcps | 3.2102 |  | 1623 | 3.2102 | 1 | 11.3 | 3.2102 |  |
| RGDKIKIQIC |  | 1 | 1 | 1 | 1 | 1 |  | 17.27 mV | 16.5 mV | 3.876 | 7509 kcps | 3.876 |  | 7509 | 3.876 | 1 | 16.5 | 3.876 |  |
| RGDKIKIQINM |  | 1 | 1 | 1 | 1 | 1 |  | 16.22 mV | 16.43 mV | 1.7574 | 57 kcps | 1.7574 |  | 57.2 | 1.7574 | 1 | 16.43 | 1.7574 |  |
| RGDKIKIQINMC |  |  | 1 | 1 | 1 | 1 |  | 13.9 mV | 12.2 mV | 3.147 | 1404 kcps | 3.147 |  | 1404 | 3.147 |  | 12.2 | 3.147 |  |
| RGDKIKIQINMWQ |  | 1 | 1 | 1 | 1 | 1 |  | 11.21 mV | 6.59 mV | 3.1914 | 1554 kcps | 3.1914 |  | 1554 | 3.1914 | 1 | 6.59 | 3.1914 |  |
| RGDSGGGGGGKIKIQIC |  | 1 | 1 | 1 | 1 | 1 |  | 16.7 mV | 16.7 mV | 4.018 | 10416 kcps | 4.018 |  | 10416.16667 | 4.018 | 1 | 16.7 | 4.018 | 4.018 |
| RGDSKIKIQIC |  | 1 | 1 | 1 | 1 | 1 |  | 15.65 mV | 15.1 mV | 3.431 | 2699 kcps | 3.431 |  | 2699 | 3.431 | 1 | 15.1 | 3.431 |  |
